Measurements from patent US20260347319A1, “YAP/TAZ-TEAD ONCOPROTEINS INHIBITORS” (BridGene Biosciences, Inc., priority 2022, published 2026).

Test system: TEAD1
Assay: MCF-7 TEAD1-luciferase reporter assay (MCF7-TEAD-Luc)
Format: cell-based
Settings: MCF7 cells, overnight; for IC50: Homo sapiens; for TEAD1-Luc MCF7: Max Inhibition: % of DMSO-treated control
Description: The ability of compounds to inhibit TEAD-dependent transcription was assessed in the MCF7-TEAD-Luc reporter assay (BPS #60618). Cells were seeded at 10,000 cells in 200 μL per well into white wall, clear bottom 96-well plates (Corning #3610) and incubated at 37° C. for 24 hours, then treated with serial diluted compounds overnight, and luciferase signal was measured using the ONE-Step Luciferase Assay System (BPS #60690) using an EnSight Multimode plate reader (PerkinElmer, model #MLDHH34000000, integration time 100 ms) with Kaleido 3.0. software. For data analysis, dose-dependent curves were plotted as “% inhibition” (% of DMSO-treated control wells), and were fitted by four-parametric model in GraphPad Prism to obtain IC50 values.

| Compound | IC50 | TEAD1-Luc MCF7: Max Inhibition |
| --- | --- | --- |
| C=CC(=O)N1CC[C@@](O)(C#Cc2ccc(C(F)(F)F)cc2)C1 (single isomer, unassigned) [Example 65, (R*)-1-(3-hydroxy-3-((4-(trifluoromethyl)phenyl)ethynyl)pyrrolidin-1-yl)prop-2-en-1-one] | 100 to 500 nM | A (A ≥ 75%) |
| C=CC(=O)N1CC[C@H](C#Cc2ccc(C(F)(F)F)cc2)C1 (single isomer, unassigned) [Example 66, (R*)-1-(3-((4-(trifluoromethyl)phenyl)ethynyl)pyrrolidin-1-yl)prop-2-en-1-one] | 10 to 100 nM | A (A ≥ 75%) |
| C=C(F)C(=O)N1CC[C@@H](/C=C/c2ccc(C(F)(F)F)cc2)C1 (single isomer, unassigned) [Example 68] | 100 to 500 nM | B (75% > B ≥ 50%) |
| C=C(F)C(=O)N1CC[C@H](/C=C/c2ccc(C(F)(F)F)cc2)C1 (single isomer, unassigned) [Example 69] | 100 to 500 nM | B (75% > B ≥ 50%) |
| C=CC(=O)N1C[C@H](Nc2ncccn2)[C@@H](/C=C/c2ccc(C(F)(F)F)cc2)C1 (single isomer, unassigned) [Example 84] | 10 to 100 nM | A (A ≥ 75%) |
| C=CC(=O)N1CCC(/C=C\Cc2ccc(C(F)(F)F)cc2)C1 (single isomer, unassigned) [Example 89, (Z)-1-(3-(3-(4-(trifluoromethyl)phenyl)prop-1-en-1-yl)pyrrolidin-1-yl)prop-2-en-1-one] | 10 to 100 nM | A (A ≥ 75%) |
| C=CC(=O)N1CCC(/C=C\C(C)(C)c2ccc(C(F)(F)F)cc2)C1 (single isomer, unassigned) [Example 91, (Z)-1-(3-(3-methyl-3-(4-(trifluoromethyl)phenyl)but-1-en-1-yl)pyrrolidin-1-yl)prop-2-en-1-one] | > 500 nM | B (75% > B ≥ 50%) |
| C=CC(=O)N1CCC(/C=C/C(C)(C)c2ccc(C(F)(F)F)cc2)C1 (single isomer, unassigned) [Example 92, (E)-1-(3-(3-methyl-3-(4-(trifluoromethyl)phenyl)but-1-en-1-yl)pyrrolidin-1-yl)prop-2-en-1-one] | > 500 nM | B (75% > B ≥ 50%) |
| C=CC(=O)N1CC[C@@H](/C=C/Cc2ccc(C(F)(F)F)cc2)C1 (single isomer, unassigned) [Example 93] | 10 to 100 nM | B (75% > B ≥ 50%) |
| C=CC(=O)N1CC[C@H](/C=C/Cc2ccc(C(F)(F)F)cc2)C1 (single isomer, unassigned) [Example 94] | 10 to 100 nM | B (75% > B ≥ 50%) |
| C=CC(=O)N1CCC2(C=C(c3ccc(C(F)(F)F)cc3)CC2)C1 (single isomer, unassigned) [Example 95, 1-(7-(4-(trifluoromethyl)phenyl)-2-azaspiro[4.4]non-6-en-2-yl)prop-2-en-1-one] | 100 to 500 nM | B (75% > B ≥ 50%) |
| C=CC(=O)N1CCC2(CC=C(c3ccc(C(F)(F)F)cc3)C2)C1 (single isomer, unassigned) [Example 96, 1-(7-(4-(trifluoromethyl)phenyl)-2-azaspiro[4.4]non-7-en-2-yl) prop-2-en-1-one] | 10 to 100 nM | B (75% > B ≥ 50%) |
| C=CC(=O)N1CCC2(C=C(c3ccc(C(F)(F)F)cc3)CO2)C1 (single isomer, unassigned) [Example 97, 1-(3-(4-(trifluoromethyl)phenyl)-1-oxa-7-azaspiro[4.4]non-3-en-7-yl)prop-2-en-1-one] | 100 to 500 nM | C (50% > C ≥ 2%) |
| C=CC(=O)N1CCC2(CC(c3ccc(C(F)(F)F)cc3)=CO2)C1 (single isomer, unassigned) [Example 98, 1-(3-(4-(trifluoromethyl)phenyl)-1-oxa-7-azaspiro[4.4]non-2-en-7-yl)prop-2-en-1-one] | > 500 nM | C (50% > C ≥ 2%) |
| C=CC(=O)N1CC[C@H]([C@@H](O)/C=C/c2ccc(C(F)(F)F)cc2)C1 (single isomer, unassigned) [Example 103] | 100 to 500 nM | B (75% > B ≥ 50%) |
| C=CC(=O)N1CC[C@H]([C@H](O)/C=C/c2ccc(C(F)(F)F)cc2)C1 (single isomer, unassigned) [Example 104] | 100 to 500 nM | B (75% > B ≥ 50%) |
| C=CC(=O)N1C[C@H](C)[C@@H](/C=C/c2ccc(C(F)(F)F)cc2)C1 (stereo in doubt) [Example 40, 1-[(3R*,4R*)-3-methyl-4-{2-[4-(trifluoromethyl)phenyl]ethenyl}pyrrolidin-1-yl]prop-2-en-1-one] | > 500 nM | A (A ≥ 75%) |
| C=CC(=O)N1CCC(/C=C/c2ccc(C(F)(F)F)cc2)CC1 [Example 6] | 10 to 100 nM | B (75% > B ≥ 50%) |
| C=CC(=O)N1CC(/C=C/c2ccc(C(F)(F)F)cc2OC)C1 [Example 19, 1-(3-(2-methoxy-4-(trifluoromethyl)styryl)azetidin-1-yl)prop-2-en-1-one] | 10 to 100 nM | C (50% > C ≥ 2%) |
| C=CC(=O)N1CC2(CC(/C=C/c3ccc(C(F)(F)F)cc3)C2)C1 [Example 20] | 100 to 500 nM | B (75% > B ≥ 50%) |
| C=CC(=O)N1CC2(CC(/C=C/c3cc(C(F)(F)F)on3)C2)C1 [Example 22, 1-{6-[(E)-2-[5-(trifluoromethyl)-1,2-oxazol-3-yl]ethenyl]-2-azaspiro[3.3]heptan-2-yl}prop-2-en-1-one] | 10 to 100 nM | B (75% > B ≥ 50%) |
| C=CC(=O)N1CC2(CC(/C=C\c3cc(C(F)(F)F)on3)C2)C1 [Example 23, 1-{6-[(Z)-2-[5-(trifluoromethyl)-1,2-oxazol-3-yl]ethenyl]-2-azaspiro[3.3]heptan-2-yl}prop-2-en-1-one] | 10 to 100 nM | B (75% > B ≥ 50%) |
| C=CC(=O)N1CC2(CCC(/C=C/c3cc(C(F)(F)F)on3)CC2)C1 [Example 24, 1-{7-[(E)-2-[5-(trifluoromethyl)-1,2-oxazol-3-yl]ethenyl]-2-azaspiro[3.5]nonan-2-yl}prop-2-en-1-one] | > 500 nM | C (50% > C ≥ 2%) |
| C=CC(=O)N1CC2(CCC(/C=C\c3cc(C(F)(F)F)on3)CC2)C1 [Example 25, 1-{7-[(Z)-2-[5-(trifluoromethyl)-1,2-oxazol-3-yl]ethenyl]-2-azaspiro[3.5]nonan-2-yl}prop-2-en-1-one] | 100 to 500 nM | B (75% > B ≥ 50%) |

Now from value to compound, other results behind:

| IC50 | Compound | TEAD1-Luc MCF7: Max Inhibition |
| --- | --- | --- |
| 10 to 100 nM | C=CC(=O)N1CC[C@@](F)(C#Cc2ccc(C(F)(F)F)cc2)C1 (single isomer, unassigned) [Example 63, (R*)-1-(3-fluoro-3-((4-(trifluoromethyl)phenyl)ethynyl)pyrrolidin-1-yl)prop-2-en-1-one] | A (A ≥ 75%) |
| 10 to 100 nM | C=CC(=O)N1CC[C@](O)(C#Cc2ccc(C(F)(F)F)cc2)C1 (single isomer, unassigned) [Example 64, (S*)-1-(3-hydroxy-3-((4-(trifluoromethyl)phenyl)ethynyl)pyrrolidin-1-yl)prop-2-en-1-one] | A (A ≥ 75%) |
| ≤ 10 nM | C=CC(=O)N1CCC(/C=C/Cc2ccc(C(F)(F)F)cc2)C1 (single isomer, unassigned) [Example 88, (E)-1-(3-(3-(4-(trifluoromethyl)phenyl)prop-1-en-1-yl)pyrrolidin-1-yl)prop-2-en-1-one] | B (75% > B ≥ 50%) |
| ≤ 10 nM | C=CC(=O)N1CC(C/C=C/c2cc(C(F)(F)F)on2)C1 [Example 2, 1-{3-[(2E)-3-[5-(trifluoromethyl)-1,2-oxazol-3-yl]prop-2-en-1-yl]azetidin-1-yl}prop-2-en-1-one] | A (A ≥ 75%) |
| ≤ 10 nM | C=CC(=O)N1CC(/C=C/c2ccc(C(F)(F)F)c(OC)c2)C1 [Example 3, 1-{3-[(E)-2-[3-methoxy-4-(trifluoromethyl)phenyl]ethenyl]azetidin-1-yl}prop-2-en-1-one] | B (75% > B ≥ 50%) |
| ≤ 10 nM | C=CC(=O)N1CC(/C=C/c2ccc(C(F)(F)F)c(F)c2)C1 [Example 4, 1-{3-[(E)-2-[3-fluoro-4-(trifluoromethyl)phenyl]ethenyl]azetidin-1-yl}prop-2-en-1-one] | A (A ≥ 75%) |
| ≤ 10 nM | C=CC(=O)N1CC(F)(/C=C/c2cc(C(F)(F)F)on2)C1 [Example 7, (E)-1-(3-fluoro-3-(2-(5-(trifluoromethyl)isoxazol-3-yl)vinyl)azetidin-1-yl)prop-2-en-1-one] | A (A ≥ 75%) |
| ≤ 10 nM | C=CC(=O)N1CC(F)(/C=C\c2cc(C(F)(F)F)on2)C1 [Example 8, (Z)-1-(3-fluoro-3-(2-(5-(trifluoromethyl)isoxazol-3-yl)vinyl)azetidin-1-yl)prop-2-en-1-one] | A (A ≥ 75%) |
| ≤ 10 nM | C=CC(=O)N1CC(C)(/C=C/c2cc(C(F)(F)F)on2)C1 [Example 16, 1-(3-methyl-3-(2-(5-(trifluoromethyl)isoxazol-3-yl)vinyl)azetidin-1-yl)prop-2-en-1-one] | A (A ≥ 75%) |
| ≤ 10 nM | C=CC(=O)N1CC(/C=C/c2ccc(C(F)(F)F)cc2)(OC)C1 [Example 17] | B (75% > B ≥ 50%) |
| ≤ 10 nM | C=CC(=O)N1CC(C)(/C=C/c2ccc(C(F)(F)F)cc2)C1 [Example 18] | A (A ≥ 75%) |
